Measurements from patent US20250122207A1, “AP2 ASSOCIATED KINASE 1 INHIBITORS AND USES THEREOF” (Satellos Bioscience Inc., priority 2023, published 2025).
Like-named read-outs stand apart in the source and are kept apart here.

How the values were obtained:
[1] = biological target: T1, AAK1 (amino acids T27-A365) (Homo sapiens, UniProt Q2M2I8); assay: AAK1 pSENs assay; assay type: biochemical
T1 construct: against AAK1 (amino acids T27-A365); 6His (N, cleaved yes)
Procedure, shortened: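 Biotinylated, tag-free AAK1 T27-A365 expressed in E. coli was held at 20 nM in enzyme solution (HEPES pH 7.5, 10 mM MgCl2, DTT, EGTA, Brij35, BSA) and preincubated with compound for 15 min at 25 °C. The reaction was started with an equal volume of substrate solution containing 30 uM AQT0759 peptide and 70 uM ATP. IC50 determined.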

AAK1 = AAK1 (Homo sapiens, UniProt Q2M2I8); assay: pAP2M1 cell-based assay (in-cell Western)
Chain of AAK1 (Q2M2I8 whole entry): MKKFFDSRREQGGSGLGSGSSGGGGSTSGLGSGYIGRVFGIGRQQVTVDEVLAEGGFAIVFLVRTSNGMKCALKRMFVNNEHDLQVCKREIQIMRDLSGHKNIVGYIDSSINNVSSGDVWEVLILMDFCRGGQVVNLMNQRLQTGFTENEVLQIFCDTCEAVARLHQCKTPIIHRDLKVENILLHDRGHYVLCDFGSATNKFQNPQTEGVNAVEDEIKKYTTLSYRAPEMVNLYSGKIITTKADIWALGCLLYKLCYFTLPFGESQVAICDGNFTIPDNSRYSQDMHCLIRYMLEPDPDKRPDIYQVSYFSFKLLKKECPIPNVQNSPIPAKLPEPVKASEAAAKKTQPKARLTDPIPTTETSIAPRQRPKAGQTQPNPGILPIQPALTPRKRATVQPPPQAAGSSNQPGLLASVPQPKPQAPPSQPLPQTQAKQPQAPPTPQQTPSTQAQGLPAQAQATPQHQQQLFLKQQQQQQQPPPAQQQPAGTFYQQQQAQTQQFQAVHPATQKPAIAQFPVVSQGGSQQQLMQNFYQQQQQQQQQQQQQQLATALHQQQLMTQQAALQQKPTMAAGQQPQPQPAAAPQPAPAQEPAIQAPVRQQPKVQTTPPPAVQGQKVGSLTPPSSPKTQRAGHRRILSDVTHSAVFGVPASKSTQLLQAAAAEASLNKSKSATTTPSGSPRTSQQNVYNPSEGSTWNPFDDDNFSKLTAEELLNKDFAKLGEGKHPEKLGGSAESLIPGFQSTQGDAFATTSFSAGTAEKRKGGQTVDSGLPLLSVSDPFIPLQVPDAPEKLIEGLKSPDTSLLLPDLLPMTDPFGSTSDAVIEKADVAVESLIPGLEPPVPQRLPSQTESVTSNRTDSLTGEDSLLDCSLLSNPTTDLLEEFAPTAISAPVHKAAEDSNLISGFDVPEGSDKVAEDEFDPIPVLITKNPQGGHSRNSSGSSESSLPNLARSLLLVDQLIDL
Source text: pAP2M1 Cell-Based Assay (in-Cell Western):
The plate was read on Licor Odyssey CLx imaging system (LICOR) to acquire fluorescence intensity at 700 channel and 800 channel.
Data analysis: Fluorescence intensity at 700 channel served as internal standard and 800 channel were normalized with 700 channel.

[2] = biological target: T2, BIKE (amino acids S38-E345) (K320A, K321A) (Homo sapiens, UniProt Q9NSY1, K320A/K321A); assay: BIKE pSENs assay; assay type: biochemical
T2 construct: against BIKE (amino acids S38-E345) (K320A, K321A); 6His (N, cleaved yes)
T2 sequence (Q9NSY1 38-345 K320A/K321A): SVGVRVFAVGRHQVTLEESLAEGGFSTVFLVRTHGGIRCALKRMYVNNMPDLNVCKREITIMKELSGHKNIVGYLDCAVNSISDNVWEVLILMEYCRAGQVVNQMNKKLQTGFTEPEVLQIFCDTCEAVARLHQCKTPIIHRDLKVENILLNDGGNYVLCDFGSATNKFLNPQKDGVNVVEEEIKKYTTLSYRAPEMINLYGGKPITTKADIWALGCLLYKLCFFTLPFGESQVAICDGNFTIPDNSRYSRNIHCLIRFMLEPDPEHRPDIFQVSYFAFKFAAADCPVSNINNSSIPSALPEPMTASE
Procedure, shortened: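 E. coli-expressed, biotinylated, tag-free BIKE at 20 nM in HEPES pH 7.5 buffer with 10 mM MgCl2 preincubated with compound 15 min at 25° C. Reaction started with 30 uM AQT0759 sensor peptide and 40 uM ATP (concentrations before 1:1 mixing).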

[3] = biological target: T3, GAK (amino acids Q25-N335) (Homo sapiens, UniProt O14976); assay: GAK pSENs assay; assay type: biochemical
T3 construct: against GAK (amino acids Q25-N335); 6His (N, cleaved yes)
T3 sequence (O14976 25-335): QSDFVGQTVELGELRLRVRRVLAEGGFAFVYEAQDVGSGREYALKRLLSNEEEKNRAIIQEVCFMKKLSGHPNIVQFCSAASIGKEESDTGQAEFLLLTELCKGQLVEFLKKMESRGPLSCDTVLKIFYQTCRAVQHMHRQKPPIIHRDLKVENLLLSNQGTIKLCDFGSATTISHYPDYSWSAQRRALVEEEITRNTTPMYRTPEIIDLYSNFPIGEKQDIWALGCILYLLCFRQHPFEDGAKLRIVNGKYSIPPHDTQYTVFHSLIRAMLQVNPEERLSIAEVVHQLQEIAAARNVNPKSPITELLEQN
Method: The recombinant proteins were independently expressed in Escherichia coli BL21(DE3) cells cultured in Luria-Bertani (LB) medium until OD600 reached 0.6-0.8, then cooled to 15° C. and supplemented with 0.5 mM isopropyl 1-thio-D-galactopyranoside (IPTG) induce protein expression 16 h. Cells were harvested and resuspended in lysis buffer (50 mM HEPES pH 7.5, 500 mM NaCl, 5 mM imidazole, 5% glycerol, 0.5 mM Tris (2-carboxyethyl) phosphine (TCEP), cOmplete Protease Inhibitor Tablet (Roche)) and lysed by microfludics high pressure homogenizer (UH-06, Union-Biotech). Proteins were purified using […] chromatography (His FF column, Bestchrom) and eluted stepwise in binding buffer with 20-300 mM imidazole. Removal of the hexahistidine tag was performed at 4° C. overnight using recombinant TEV protease and reacted with BirA to obtain the corresponding biotinylated-AAK1, BIKE or GAK proteins. Further separated in the reverse Strep column (Strep-Tactin® XT, IBA). The Biotin elution sample was collected containing untagged biotinylated protein was then purified by Ion-exchange chromatography (Mono Q 10/100 GL, Cytiva) and Size-exclusion chromatography (HiLoad 16/600 Superdex 200 pg, Cytiva). The pure protein was stored in a storage buffer 50 mM HEPES (pH 7.5), 300 mM NaCl, 5% glycerol at −80° C. Protein were characterized by SDS-PAGE, LC-MS and aSEC.
This example describes one illustrative method for determining the IC50 of the compounds of the present invention against GAK (amino acids Q25-N335).

[4] = class symbols, read-out: AAK1 pSENs: EIC50
[5] = Hela cells co-transfected with AP2M1 and AAK1, 3 hr treatment, class symbols, read-out: AAK1 In-cell Western: IC50
[6] = class symbols, read-out: BIKE pSENs: IC50
[7] = class symbols, read-out: GAK pSENs:IC50

T1 sequence (Q2M2I8 27-365): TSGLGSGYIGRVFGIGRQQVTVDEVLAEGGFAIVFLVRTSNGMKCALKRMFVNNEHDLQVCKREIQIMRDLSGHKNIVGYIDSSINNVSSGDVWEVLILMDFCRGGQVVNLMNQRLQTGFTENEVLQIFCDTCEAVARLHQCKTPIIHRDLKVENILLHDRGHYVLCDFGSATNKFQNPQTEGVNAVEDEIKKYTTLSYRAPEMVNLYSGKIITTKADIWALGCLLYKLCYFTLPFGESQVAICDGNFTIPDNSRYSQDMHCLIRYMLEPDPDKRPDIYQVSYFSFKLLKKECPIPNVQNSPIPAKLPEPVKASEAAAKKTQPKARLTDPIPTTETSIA

Row | SMILES | IC50 [1, 4] | IC50 (AAK1; [5]) | IC50 [2, 6] | IC50 [3, 7] | further results
1 | CC(C)(C)OC(=O)N1CCN(c2ccn3ncc(Cl)c3n2)CC1 [Compound I-100, tert-butyl 4-(3-chloropyrazolo[1,5-a]pyrimidin-5-yl)piperazine-1-carboxylate] | 501 to 1500 nM | > 1500 nM | > 1500 nM | > 1500 nM | 
2 | O=C1C[C@H](OC(=O)N2CCN(c3ccn4ncc(-c5cccnc5NC5CC5)c4n3)CC2)CN1 [Compound I-45, [(3S)-5-Oxopyrrolidin-3-yl]4-[3-[2-(cyclopropylamino)-3-pyridyl]pyrazolo[1,5-a]pyrimidin-5-yl]piperazine-1-carboxylate] | > 1500 nM | > 1500 nM | > 1500 nM | > 1500 nM | 
3 | c1cc2nc(N3CCNCC3)ccn2n1 [Compound I-105, 5-piperazin-1-ylpyrazolo[1,5-a]pyrimidine] |  |  |  |  | IC50 [1]: > 1500 nM; IC50 (AAK1): > 1500 nM; IC50 [2]: > 1500 nM; IC50 [3]: > 1500 nM
4 | COc1ncccc1-c1cnn2ccc(N3CCN(C(=O)OC4(C)COC4)CC3)nc12 [RC-1, (3-methyloxetan-3-yl)-4-[3-(2-methoxy-3-pyridyl)pyrazolo[1,5-a]pyrimidin-5-yl]piperazine-1-carboxylate, reference compound] |  |  |  |  | IC50 ([1]; numeric values, read-out: AAK1 pSENs: EIC50): 8.68 nM; IC50 (AAK1; Hela cells co-transfected with AP2M1 and AAK1, 3 hr treatment, numeric values, read-out: AAK1 In-cell Western: IC50): 157 nM; IC50 ([2]; numeric values, read-out: BIKE pSENs: IC50): 84.6 nM; IC50 ([3]; numeric values, read-out: GAK pSENs:IC50): 1050 nM
5 | C#C[C@@]1(OC(=O)N2CCN(c3ccn4ncc(-c5cccnc5OC5CC5)c4n3)CC2)CCNC1 [Compound I-16, [(3S)-3-Ethynylpyrrolidin-3-yl]-4-[3-[2-(cyclopropoxy)-3-pyridyl]pyrazolo[1,5-a]pyrimidin-5-yl]piperazine-1-carboxylate] | 1 to 50 nM | 1 to 50 nM | 1 to 50 nM | 51 to 150 nM | 
6 | C#CC1(OC(=O)N2CCN(c3ccn4ncc(-c5cccnc5OC)c4n3)CC2)CCNC1 (centres unmarked) [Compound I-9, (3-Ethynylpyrrolidin-3-yl) 4-[3-(2-methoxy-3-pyridyl)pyrazolo[1,5-a]pyrimidin-5-yl]piperazine-1-carboxylate] | 1 to 50 nM | 51 to 150 nM | 1 to 50 nM | 151 to 500 nM | 
7 | C[C@@]1(OC(=O)N2CCN(c3ccn4ncc(-c5cccnc5OC5CC5)c4n3)CC2)CCN(CC(N)=O)C1 [Compound I-51, (R)-1-(2-amino-2-oxoethyl)-3-(methylpyrrolidin-3-yl)-4-(3-(2-cyclopropoxypyridin-3-yl)pyrazolo[1,5-a]pyrimidin-5-yl)piperazine-1-carboxylate] | 1 to 50 nM | 151 to 500 nM | 501 to 1500 nM | 501 to 1500 nM | 
8 | C#CC1(OC(=O)N2CCN(c3ccn4ncc(-c5cccnc5OC5CC5)c4n3)CC2)CCNC1 (centres unmarked) [Compound I-16-7, 3-ethynylpyrrolidin-3-yl-4-(3-(2-cyclopropoxypyridin-3-yl)pyrazolo[1,5-a]pyrimidin-5-yl)piperazine-1-carboxylate] | 1 to 50 nM | 1 to 50 nM | 51 to 150 nM | 51 to 150 nM | 
9 | CN(CCNc1ccn2ncc(-c3cccnc3OC3CC3)c2n1)C(=O)O[C@]1(C)CCNC1 [Compound I-61, (R)-3-methylpyrrolidin-3-yl (2-((3-(2-cyclopropoxypyridin-3-yl)pyrazolo[1,5-a]pyrimidin-5-yl)amino)ethyl)(methyl)carbamate] | 1 to 50 nM | 501 to 1500 nM | 51 to 150 nM | 151 to 500 nM | 
10 | CC(C)(C)OC(=O)NCCNc1nc2c(-c3cccnc3OC3CC3)cnn2cc1F [Compound I-124, tert-butyl N-[2-[[3-[2-(cyclopropoxy)-3-pyridyl]-6-fluoro-pyrazolo[1,5-a]pyrimidin-5-yl]amino]ethyl]carbamate] | 51 to 150 nM | 501 to 1500 nM | 501 to 1500 nM | 501 to 1500 nM | 
11 | CC(C)Oc1ncccc1-c1cnn2ccc(N3CCN(C(=O)O[C@]4(C)CCNC4)CC3)nc12 [Compound I-22, [(3R)-3-methylpyrrolidin-3-yl]4-[3-(2-isopropoxy-3-pyridyl)pyrazolo[1,5-a]pyrimidin-5-yl]piperazine-1-carboxylate] | 1 to 50 nM | 51 to 150 nM | 51 to 150 nM | 51 to 150 nM | 
12 | CN1C[C@H](OC(=O)N2CCN(c3ccn4ncc(-c5cccnc5OC5CC5)c4n3)CC2)CC1=O [Compound I-94] | 1 to 50 nM | 501 to 1500 nM |  |  | IC50 [2]: 151 to 500 nM; IC50 [3]: > 1500 nM
13 | C[C@@]1(OC(=O)N2CCN(c3ccn4ncc(-c5cccnc5OC5CC5)c4n3)CC2)CCNC1 [Compound I-14, [(3R)-3-Methylpyrrolidin-3-yl]-4-[3-[2-(cyclopropoxy)-3-pyridyl]pyrazolo[1,5-a]pyrimidin-5-yl]piperazine-1-carboxylate] | 1 to 50 nM | 151 to 500 nM | 151 to 500 nM | 501 to 1500 nM | 
14 | COc1ncccc1-c1cnn2ccc(NCCN(C)C(=O)O[C@H]3CO[C@H]4OCC[C@H]43)nc12 [Compound I-70, (3R,3aS,6aR)-hexahydrofuro[2,3-b]furan-3-yl (2-((3-(2-methoxypyridin-3-yl)pyrazolo[1,5-a]pyrimidin-5-yl)amino)ethyl)(methyl)carbamate] | 1 to 50 nM | 501 to 1500 nM | 51 to 150 nM | 501 to 1500 nM | 
15 | Brc1cnn2ccc(N3CCNCC3)nc12 [Compound I-103, 3-bromo-5-piperazin-1-yl-pyrazolo[1,5-a]pyrimidine] |  |  |  |  | IC50 [1]: > 1500 nM; IC50 (AAK1): > 1500 nM; IC50 [2]: > 1500 nM; IC50 [3]: > 1500 nM
16 | CC(C)Oc1ncccc1-c1cnn2ccc(N3CCN(C(=O)OC4(C)CCNC4)CC3)nc12 (centres unmarked) [Compound I-21-5, (3-methylpyrrolidin-3-yl)-4-[3-(2-isopropoxy-3-pyridyl)pyrazolo[1,5-a]pyrimidin-5-yl]piperazine-1-carboxylate] | 1 to 50 nM | 151 to 500 nM | 151 to 500 nM | 151 to 500 nM | 
17 | CC1(OC(=O)N2CCN(c3ccn4ncc(-c5cccc(C(N)=O)c5)c4n3)CC2)COC1 [Compound I-4, (3-methyloxetan-3-yl)-4-[3-(3-carbamoylphenyl)pyrazolo[1,5-a]pyrimidin-5-yl]piperazine-1-carboxylate] | 51 to 150 nM | 501 to 1500 nM | 501 to 1500 nM | 501 to 1500 nM | 
18 | Clc1cnn2ccc(N3CCNCC3)nc12 [Compound I-104, 3-chloro-5-piperazin-1-yl-pyrazolo[1,5-a]pyrimidine] | > 1500 nM | > 1500 nM | > 1500 nM | > 1500 nM | 
19 | CN1C[C@@H](OC(=O)N2CCN(c3ccn4nccc4n3)CC2)CC1=O [Compound I-97, [(3S)-1-methyl-5-oxo-pyrrolidin-3-yl]-4-pyrazolo[1,5-a]pyrimidin-5-ylpiperazine-1-carboxylate] | > 1500 nM | > 1500 nM | > 1500 nM | > 1500 nM | 
20 | CN1C[C@@H](OC(=O)N2CCN(c3ccn4ncc(Cl)c4n3)CC2)CC1=O [Compound I-96, [(3S)-1-methyl-5-oxo-pyrrolidin-3-yl]-4-(3-chloropyrazolo[1,5-a]pyrimidin-5-yl)piperazine-1-carboxylate] | > 1500 nM | > 1500 nM | > 1500 nM | > 1500 nM | 
